Assay results: ChEMBL document CHEMBL1136440, “Design and synthesis of novel RXR-selective modulators with improved pharmacological profile” (Bioorg Med Chem Lett, 2003)
Several values for one entry are separate records, joined by “and”; a condition that tells them apart may be missing. Identical values can stand only once.

Assays:
[1] = Tmax value in IRC mice; type: ADME, organism-based; conditions: mouse, in vivo
[2] = Cmax value in IRC mice; type: ADME, organism-based; conditions: mouse, in vivo
[3] = Area under curve at 0-8 hr in IRC mice after peroral administration; type: ADME, organism-based; design: time < 8 hr, route oral; conditions: mouse, in vivo, po
[4] = target: T1, Retinoic acid receptor RXR-alpha (Homo sapiens, UniProt P19793); assay: In vitro antagonist activity against RXR alpha in CV-1 cells; type: functional, cell-based, Cercopithecidae
T1 sequence (P19793 whole entry): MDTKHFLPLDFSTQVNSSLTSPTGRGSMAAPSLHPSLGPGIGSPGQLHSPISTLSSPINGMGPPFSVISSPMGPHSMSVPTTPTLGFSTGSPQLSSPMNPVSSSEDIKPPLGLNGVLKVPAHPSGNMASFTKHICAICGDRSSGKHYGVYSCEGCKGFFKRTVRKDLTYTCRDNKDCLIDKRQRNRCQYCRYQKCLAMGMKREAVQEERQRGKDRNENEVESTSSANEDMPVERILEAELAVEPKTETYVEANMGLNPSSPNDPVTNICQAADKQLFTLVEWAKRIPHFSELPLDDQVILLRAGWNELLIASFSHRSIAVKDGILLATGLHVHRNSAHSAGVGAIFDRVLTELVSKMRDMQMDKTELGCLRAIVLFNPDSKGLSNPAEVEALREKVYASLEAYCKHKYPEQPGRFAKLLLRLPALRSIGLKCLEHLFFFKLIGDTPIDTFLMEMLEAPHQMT

[5] = target: T2, Retinoic acid receptor alpha (Homo sapiens) (UniProt P10276); assay: Agonist synergy against RAR alpha was tested along with 3 nM TTNPB; type: functional; conditions: Cercopithecidae
T2 sequence (whole entry): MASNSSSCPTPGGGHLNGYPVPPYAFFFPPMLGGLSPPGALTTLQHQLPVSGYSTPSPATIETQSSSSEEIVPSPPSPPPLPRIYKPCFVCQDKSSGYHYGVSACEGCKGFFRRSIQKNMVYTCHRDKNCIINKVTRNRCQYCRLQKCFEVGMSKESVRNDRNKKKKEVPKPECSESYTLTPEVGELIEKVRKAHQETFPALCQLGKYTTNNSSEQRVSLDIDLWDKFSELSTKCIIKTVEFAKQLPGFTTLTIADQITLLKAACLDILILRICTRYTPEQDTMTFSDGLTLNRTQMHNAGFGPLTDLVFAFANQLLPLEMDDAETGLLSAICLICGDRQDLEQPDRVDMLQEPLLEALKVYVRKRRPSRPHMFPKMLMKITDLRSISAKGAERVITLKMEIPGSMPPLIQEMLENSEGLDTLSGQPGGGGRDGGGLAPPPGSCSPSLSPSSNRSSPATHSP

[6] = target: T3, Retinoic acid receptor beta (Homo sapiens, UniProt P10826); assay: Binding affinity against RAR beta receptor using [3H]ATRA as radioligand in CV-1 cells; type: cell-based, Cercopithecidae
T3 sequence (P10826 whole entry): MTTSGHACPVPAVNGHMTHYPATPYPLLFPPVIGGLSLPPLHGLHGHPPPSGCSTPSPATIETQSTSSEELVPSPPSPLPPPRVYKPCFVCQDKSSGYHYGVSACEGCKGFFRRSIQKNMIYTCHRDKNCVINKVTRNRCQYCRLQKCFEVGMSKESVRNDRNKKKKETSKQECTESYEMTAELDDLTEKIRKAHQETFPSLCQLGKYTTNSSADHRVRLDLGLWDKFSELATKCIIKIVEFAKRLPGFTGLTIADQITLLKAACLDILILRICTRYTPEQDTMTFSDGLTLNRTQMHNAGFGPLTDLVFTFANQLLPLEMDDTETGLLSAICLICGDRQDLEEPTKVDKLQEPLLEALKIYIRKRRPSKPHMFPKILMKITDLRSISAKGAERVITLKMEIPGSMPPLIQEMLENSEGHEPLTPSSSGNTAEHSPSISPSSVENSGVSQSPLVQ

[7] = target: T4, Retinoic acid receptor RXR-beta (Homo sapiens, UniProt P28702); assay: Displacement of [3H]9-cis-RA from RXR beta receptor in CV-1 cells; type: cell-based, Cercopithecidae
T4 sequence (P28702 whole entry): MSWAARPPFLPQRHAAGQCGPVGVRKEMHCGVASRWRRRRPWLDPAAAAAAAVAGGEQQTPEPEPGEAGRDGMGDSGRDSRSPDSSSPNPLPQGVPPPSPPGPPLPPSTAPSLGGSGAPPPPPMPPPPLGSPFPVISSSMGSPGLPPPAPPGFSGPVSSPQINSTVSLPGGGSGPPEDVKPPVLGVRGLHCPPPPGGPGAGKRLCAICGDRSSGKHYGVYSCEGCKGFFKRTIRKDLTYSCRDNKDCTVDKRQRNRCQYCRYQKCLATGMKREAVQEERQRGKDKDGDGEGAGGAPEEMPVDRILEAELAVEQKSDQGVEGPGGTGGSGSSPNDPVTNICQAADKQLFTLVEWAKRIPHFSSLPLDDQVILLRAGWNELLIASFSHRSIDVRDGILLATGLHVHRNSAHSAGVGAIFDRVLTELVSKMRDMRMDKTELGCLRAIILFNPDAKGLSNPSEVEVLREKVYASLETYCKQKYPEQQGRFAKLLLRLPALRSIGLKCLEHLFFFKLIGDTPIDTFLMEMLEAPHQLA

[8] = target: T5, Retinoic acid receptor alpha (Homo sapiens, UniProt P10276); assay: Binding affinity against RAR alpha receptor using [3H]ATRA as radioligand in CV-1 cells; type: cell-based, Cercopithecidae
T5 sequence (P10276 whole entry): T2 sequence (whole entry)

[9] = target: T6, Retinoic acid receptor RXR-gamma (Homo sapiens, UniProt P48443); assay: Binding affinity against RXR gamma receptor using [3H]9-cis-RA as radioligand in CV-1 cells; type: cell-based, Cercopithecidae
T6 sequence (P48443 whole entry): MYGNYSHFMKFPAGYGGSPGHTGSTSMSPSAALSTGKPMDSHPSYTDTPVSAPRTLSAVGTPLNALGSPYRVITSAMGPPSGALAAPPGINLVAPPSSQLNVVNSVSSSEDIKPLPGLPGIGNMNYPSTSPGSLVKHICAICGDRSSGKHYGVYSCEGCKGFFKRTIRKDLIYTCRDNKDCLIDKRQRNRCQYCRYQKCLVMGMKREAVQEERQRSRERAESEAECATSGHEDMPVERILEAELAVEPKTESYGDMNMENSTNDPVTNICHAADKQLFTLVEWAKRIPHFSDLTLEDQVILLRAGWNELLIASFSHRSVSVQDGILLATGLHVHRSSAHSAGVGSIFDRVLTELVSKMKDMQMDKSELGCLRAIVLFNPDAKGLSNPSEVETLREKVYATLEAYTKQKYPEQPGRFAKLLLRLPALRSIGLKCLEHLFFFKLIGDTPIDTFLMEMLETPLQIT

[10] = target: T7, Retinoic acid receptor gamma (Homo sapiens, UniProt P13631); assay: Binding affinity against RAR gamma receptor using [3H]ATRA as radioligand in CV-1 cells; type: cell-based, Cercopithecidae
T7 sequence (P13631 whole entry): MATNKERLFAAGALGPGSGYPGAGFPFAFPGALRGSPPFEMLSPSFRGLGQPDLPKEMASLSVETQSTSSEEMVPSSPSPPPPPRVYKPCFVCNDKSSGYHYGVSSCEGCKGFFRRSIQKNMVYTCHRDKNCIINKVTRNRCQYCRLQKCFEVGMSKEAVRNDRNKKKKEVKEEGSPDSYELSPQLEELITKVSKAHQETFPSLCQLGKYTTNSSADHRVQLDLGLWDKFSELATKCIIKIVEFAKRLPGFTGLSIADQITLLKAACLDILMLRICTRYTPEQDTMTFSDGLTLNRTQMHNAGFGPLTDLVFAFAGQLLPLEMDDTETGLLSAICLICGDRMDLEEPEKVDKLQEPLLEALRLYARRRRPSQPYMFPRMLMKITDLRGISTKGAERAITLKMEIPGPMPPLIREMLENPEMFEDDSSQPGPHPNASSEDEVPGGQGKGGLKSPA

[11] = target: T8, Peroxisome proliferator-activated receptor gamma (Homo sapiens, UniProt P37231)
T8 sequence (P37231 whole entry): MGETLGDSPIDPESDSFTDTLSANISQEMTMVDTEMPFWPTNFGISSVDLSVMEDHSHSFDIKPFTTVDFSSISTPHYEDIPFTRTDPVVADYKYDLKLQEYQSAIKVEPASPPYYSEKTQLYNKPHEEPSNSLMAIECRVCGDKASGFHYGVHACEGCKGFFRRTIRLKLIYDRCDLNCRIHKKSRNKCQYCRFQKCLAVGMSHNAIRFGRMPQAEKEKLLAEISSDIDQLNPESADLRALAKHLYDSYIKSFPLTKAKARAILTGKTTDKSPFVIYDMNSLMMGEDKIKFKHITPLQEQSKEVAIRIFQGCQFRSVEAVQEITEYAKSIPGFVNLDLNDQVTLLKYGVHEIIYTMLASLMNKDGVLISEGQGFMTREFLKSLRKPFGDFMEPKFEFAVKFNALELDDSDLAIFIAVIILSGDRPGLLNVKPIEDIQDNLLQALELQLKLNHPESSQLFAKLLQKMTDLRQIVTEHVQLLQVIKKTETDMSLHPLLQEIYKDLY
Description: In vitro agonistic activity against PPAR gamma along with 100 nM BRL-49653

[12] = target: T8, Peroxisome proliferator-activated receptor gamma; remark: listed apart in the source
Description: In vitro agonist efficacy against PPAR gamma along with 100 nM BRL-49653

[13] = target: T7, Retinoic acid receptor gamma; assay: Displacement of [3H]ATRA from RAR gamma receptor expressed in CV-1 cells; type: cell-based, Cercopithecidae
[14] = target: T1, Retinoic acid receptor RXR-alpha; assay: biochemical
Description: Binding affinity against RXR alpha receptor using [3H]9-cis-RA as radioligand in CV-1 cells

[15] = target: T7, Retinoic acid receptor gamma; assay: Displacement of [3H]ATRA from RAR gamma receptor in CV-1 cells; […]; type: cell-based, Cercopithecidae

Tmax [1] | Cmax [2] | AUC(0-t) at 8 h [3] | IC50 [4] | Synergy [5] | Ki [6] | Ki [7] | Ki [8] | Ki [9] | Ki [10] | EC50 [11] | EC50 [12] | Ki [13] | SMILES | Ki [14] | Ki [15]
3 h | 3690 ng/mL and 8.41 µM | 17.7 µg·h/mL | 0.0068 µM | 1.8 nM | 5.68 µM | 0.0115 µM | 8.3 µM | 0.0132 µM | > 10 µM | 0.0064 µM | 0.063 µM | – | CC(/C=C/C(F)=C(/C)c1cc(C(C)(C)C)cc(C(C)(C)C)c1OCC(F)F)=C\C(=O)O | – | –
– | – | – | 0.0107 µM | 9.4 nM | > 10 µM | 0.0099 µM | > 10 µM | 0.0236 µM | – | 0.0151 µM | 0.029 µM | > 10 µM | CCCOc1c(\C(C)=C/C=C/C(C)=C/C(=O)O)cc(C(C)C)cc1C(F)(F)C(F)(F)F | 0.0858 µM | –

SMILES | Tmax [1] | Cmax [2] | AUC(0-t) at 8 h [3] | IC50 [4] | Synergy [5] | Ki [6] | Ki [7] | Ki [8] | Ki [9] | Ki [10] | EC50 [11] | EC50 [12] | Ki [13] | Ki [14] | Ki [15]
C/C(=C/C=C/C(C)=C/C(=O)O)c1cc(-c2ccco2)cc(C(C)C)c1OCC(F)F | – | – | – | 0.0036 µM | 1.2 nM | – | – | – | – | – | 0.0074 µM | 0.037 µM | – | 0.003 µM | > 10 µM
